Source: paper PMC4159282, “Gi Proteins Regulate Adenylyl Cyclase Activity Independent of Receptor Activation” (PLoS ONE, 2014)

Molecular target: T1, β2-adrenoceptor (β2AR) (Rattus norvegicus, UniProt P10608)
T1 construct: gene Adrb2
T1 sequence (P10608 whole entry): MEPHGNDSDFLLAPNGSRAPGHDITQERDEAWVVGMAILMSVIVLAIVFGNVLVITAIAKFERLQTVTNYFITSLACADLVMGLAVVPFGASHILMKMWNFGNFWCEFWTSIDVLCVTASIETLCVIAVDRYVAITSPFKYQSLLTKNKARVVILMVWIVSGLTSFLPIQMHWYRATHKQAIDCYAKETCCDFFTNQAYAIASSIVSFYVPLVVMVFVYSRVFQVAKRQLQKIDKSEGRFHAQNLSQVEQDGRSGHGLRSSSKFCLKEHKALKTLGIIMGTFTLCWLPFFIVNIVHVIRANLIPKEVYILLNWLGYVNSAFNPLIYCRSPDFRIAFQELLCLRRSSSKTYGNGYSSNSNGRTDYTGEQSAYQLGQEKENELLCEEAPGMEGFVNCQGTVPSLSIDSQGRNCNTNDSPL

Compound | EC50
C[C@@H](Cc1ccc(O)cc1)NC[C@H](O)c1cc(O)cc(O)c1 (racemic) [RS, (R,S)-fenoterol] | 3500 ± 500 nM
C[C@H](Cc1ccc(O)cc1)NC[C@H](O)c1cc(O)cc(O)c1 [RR, (R,R)-fenoterol] | 140 ± 48 nM
